# Source: PMC11079024, “Identification of a family of species-selective complex I inhibitors as potential anthelmintics” (Nature Communications, 2024)
# Values joined by “and” are separate entries in the source; they are usually repeats but may differ in a detail not shown here. Equal values may be shown once. Read-outs that look alike come from different tables or passages of the source.
# Tests used:
# [1] = in vitro; settings: human
# [2] = biological target: C. elegans (N2) complex I (NADH:ubiquinone oxidoreductase) (Caenorhabditis elegans, UniProt P24887+Q93873+Q94360); assay: biochemical; assay type: biochemical
# Sequence of C. elegans (N2) complex I (NADH:ubiquinone oxidoreductase) (Q94360 17-199): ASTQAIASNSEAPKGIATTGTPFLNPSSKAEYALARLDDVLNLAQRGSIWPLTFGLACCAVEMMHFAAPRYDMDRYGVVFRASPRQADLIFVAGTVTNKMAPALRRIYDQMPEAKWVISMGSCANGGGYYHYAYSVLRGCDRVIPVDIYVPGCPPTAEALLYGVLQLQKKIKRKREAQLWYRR
# Sequence of C. elegans (N2) complex I (NADH:ubiquinone oxidoreductase) (P24887 whole entry): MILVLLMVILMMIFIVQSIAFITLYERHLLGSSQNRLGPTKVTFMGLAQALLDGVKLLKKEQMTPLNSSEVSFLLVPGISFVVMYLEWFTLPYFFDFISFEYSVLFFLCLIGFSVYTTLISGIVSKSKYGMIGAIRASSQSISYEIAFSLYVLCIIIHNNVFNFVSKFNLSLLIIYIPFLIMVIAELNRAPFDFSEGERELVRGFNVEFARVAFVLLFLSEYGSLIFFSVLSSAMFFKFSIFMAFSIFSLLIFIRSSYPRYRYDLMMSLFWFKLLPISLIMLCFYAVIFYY
# Sequence of C. elegans (N2) complex I (NADH:ubiquinone oxidoreductase) (Q93873 31-482): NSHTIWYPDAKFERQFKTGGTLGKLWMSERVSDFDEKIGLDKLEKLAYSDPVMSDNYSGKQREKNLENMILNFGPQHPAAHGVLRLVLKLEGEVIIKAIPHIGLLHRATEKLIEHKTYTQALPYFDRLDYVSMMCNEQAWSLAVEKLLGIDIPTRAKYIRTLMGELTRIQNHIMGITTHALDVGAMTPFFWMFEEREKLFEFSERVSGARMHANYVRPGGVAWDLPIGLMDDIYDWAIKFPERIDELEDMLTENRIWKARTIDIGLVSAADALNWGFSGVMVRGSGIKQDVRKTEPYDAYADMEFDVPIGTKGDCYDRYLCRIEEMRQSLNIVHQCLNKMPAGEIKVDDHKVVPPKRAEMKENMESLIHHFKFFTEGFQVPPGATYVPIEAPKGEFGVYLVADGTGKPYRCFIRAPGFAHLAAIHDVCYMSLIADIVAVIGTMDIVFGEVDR
# In short: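 Activity expressed as percent of solvent control. Complex I rate came from DCIP reduction at 600 nm (initial linear slope, 15 min) with NADH and decylubiquinone as substrates, plus antimycin A and KCN, in pH 7.5 KPi/BSA buffer. Isolated, thrice freeze-thawed mitochondria used at 0.2 mg/mL.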
# [3] = system: L1 wild-type C. elegans; settings: 50 μM; […]; KCN survival assay; hit = relative motility below 0.25
# [4] = wild-type (N2) mitochondria, read-out: C. elegans Complex I IC50
# [5] = wild-type C. elegans mitochondria, mean of replicates, read-out: percent (%) in vitro complex I activity relative to solvent control
# [6] = wild-type C. elegans mitochondria, single replicate, read-out: percent (%) in vitro complex I activity relative to solvent control
# [7] = C. elegans, Mean of replicates, read-out: Complex I activity, dose-response data
# [8] = C. elegans, individual replicates (Rep), read-out: Complex I activity, dose-response data
smiles,measurement,setting,value
Brc1ccc(Cn2cnc3ccccc32)cc1 [Compound 5542661],CC50 at 2 days,[1],> 100 µM
same,IC50,"[2]; in vitro complex I dose response on C. elegans mitochondria, average of at least two biological replicates, fit in R (DRC), read-out: IC50 C. elegans complex I",0.53 µM
same,Log IC50 C. elegans complex I,"[2]; log10 of IC50 in µM, C. elegans mitochondria",-0.28 µM
same,IC50,[2]; [4],0.53 µM
same,IC50,"[2]; wild-type C. elegans mitochondria, estimated from fitted dose-response curves, read-out: C. elegans Complex I IC50",0.53 µM
same,"Screen ""Hit""",[3],Y (hits were identified as compounds that reduced relative motility below 0.25 (75% reduction))
COc1cc2c(cc1OC)C(C(C)c1ccc(CC(C)C)cc1)=NCC2 (stereo not shown) [NPD10504],CC50 at 2 days,"[1]; HEK293 Cell Viability Assay LC50, 2 days exposure",36.6 µM
same,remaining activity at 0.125 µM,[2]; [5],92.7%
same,remaining activity at 0.125 µM,[2]; [6],88.8%
same,remaining activity at 0.313 µM,[2]; [5],91.5%
same,remaining activity at 0.313 µM,[2]; [6],88.6%
same,remaining activity at 0.625 µM,[2]; [5],100%
same,remaining activity at 0.625 µM,[2]; [6],100%
same,remaining activity at 1.5 µM,[2]; [5],78.6%
same,remaining activity at 1.5 µM,[2]; [6],76.6%
same,remaining activity at 3 µM,[2]; [5],58.9%
same,remaining activity at 3 µM,[2]; [6],61.4%
same,remaining activity at 15 µM,[2]; [5],13.5%
same,remaining activity at 15 µM,[2]; [6],12.3%
same,remaining activity at 37.5 µM,"[2]; 37.5 µM, wild-type C. elegans mitochondria, mean of replicates, read-out: percent (%) in vitro complex I activity relative to solvent control",12.4%
same,remaining activity at 75 µM,"[2]; 75 µM, wild-type C. elegans mitochondria, mean of replicates, read-out: percent (%) in vitro complex I activity relative to solvent control",12.3%
same,activity at 100 µM,"[2]; 100 µM compound, relative to solvent control, mean (SEM), read-out: % Activity Complex I",4.22%
same,"Percent in vitro activity, Complex I (single replicate Rep1-Rep4)","[2]; 100 μM of NPD compound, C. elegans mitochondria, individual biological replicates, 100 µM",0.000% and 7.255% and 9.637%
same,activity at 100 µM,"[2]; 100 μM of NPD compound, C. elegans mitochondria, mean of four biological replicates, read-out: Percent in vitro activity, Complex I (Mean)",4.22%
same,activity at 0.0001 µM,[2]; [7],100%
same,activity at 0.0001 µM,[2]; [8],100%
same,activity at 0.0005 µM,"[2]; C. elegans, dose 0.0005 µM, Mean of replicates, read-out: Complex I activity, dose-response data",95.6%
same,"Complex I activity, dose-response data","[2]; C. elegans, dose 0.0005 µM, individual replicates (Rep)",99.245 and 96.022 and 93.047
same,activity at 0.0005 µM,"[2]; C. elegans, dose 0.0005 µM, individual replicates (Rep), read-out: Complex I activity, dose-response data",94%
same,activity at 0.001 µM,"[2]; C. elegans, dose 0.001 µM, Mean of replicates, read-out: Complex I activity, dose-response data",95.6%
same,"Complex I activity, dose-response data","[2]; C. elegans, dose 0.001 µM, individual replicates (Rep)",101.885 and 91.805 and 98.125
same,activity at 0.001 µM,"[2]; C. elegans, dose 0.001 µM, individual replicates (Rep), read-out: Complex I activity, dose-response data",90.6%
same,activity at 0.0025 µM,"[2]; C. elegans, dose 0.0025 µM, Mean of replicates, read-out: Complex I activity, dose-response data",95.4%
same,"Complex I activity, dose-response data","[2]; C. elegans, dose 0.0025 µM, individual replicates (Rep)",105.286 and 89.091 and 95.022
same,activity at 0.0025 µM,"[2]; C. elegans, dose 0.0025 µM, individual replicates (Rep), read-out: Complex I activity, dose-response data",92.2%
same,activity at 0.005 µM,"[2]; C. elegans, dose 0.005 µM, Mean of replicates, read-out: Complex I activity, dose-response data",93.5%
same,"Complex I activity, dose-response data","[2]; C. elegans, dose 0.005 µM, individual replicates (Rep)",100.896 and 97.608 and 92.236
same,activity at 0.005 µM,"[2]; C. elegans, dose 0.005 µM, individual replicates (Rep), read-out: Complex I activity, dose-response data",83.3%
same,activity at 0.013 µM,"[2]; C. elegans, dose 0.013 µM, Mean of replicates, read-out: Complex I activity, dose-response data",97.4%
same,"Complex I activity, dose-response data","[2]; C. elegans, dose 0.013 µM, individual replicates (Rep)",86.744 and 107.737 and 98.643 and 96.409
same,activity at 0.025 µM,"[2]; C. elegans, dose 0.025 µM, Mean of replicates, read-out: Complex I activity, dose-response data",99.6%
same,"Complex I activity, dose-response data","[2]; C. elegans, dose 0.025 µM, individual replicates (Rep)",81.492 and 104.774 and 100.771 and 111.289
same,activity at 0.063 µM,"[2]; C. elegans, dose 0.063 µM, Mean of replicates, read-out: Complex I activity, dose-response data",97%
same,"Complex I activity, dose-response data","[2]; C. elegans, dose 0.063 µM, individual replicates (Rep)",104.194 and 94.273 and 98.067
same,activity at 0.063 µM,"[2]; C. elegans, dose 0.063 µM, individual replicates (Rep), read-out: Complex I activity, dose-response data",91.6%
same,activity at 0.125 µM,"[2]; C. elegans, dose 0.125 µM, Mean of replicates, read-out: Complex I activity, dose-response data",92.7%
same,"Complex I activity, dose-response data","[2]; C. elegans, dose 0.125 µM, individual replicates (Rep)",100.304 and 94.360 and 87.363
same,activity at 0.125 µM,"[2]; C. elegans, dose 0.125 µM, individual replicates (Rep), read-out: Complex I activity, dose-response data",88.8%
same,activity at 0.313 µM,"[2]; C. elegans, dose 0.313 µM, Mean of replicates, read-out: Complex I activity, dose-response data",91.5%
same,"Complex I activity, dose-response data","[2]; C. elegans, dose 0.313 µM, individual replicates (Rep)",102.145 and 93.069 and 82.299
same,activity at 0.313 µM,"[2]; C. elegans, dose 0.313 µM, individual replicates (Rep), read-out: Complex I activity, dose-response data",88.6%
same,activity at 0.625 µM,[2]; [7],100%
same,activity at 0.625 µM,[2]; [8],100%
same,activity at 1.5 µM,"[2]; C. elegans, dose 1.5 µM, Mean of replicates, read-out: Complex I activity, dose-response data",78.6%
same,"Complex I activity, dose-response data","[2]; C. elegans, dose 1.5 µM, individual replicates (Rep)",84.112 and 75.755 and 78.095
same,activity at 1.5 µM,"[2]; C. elegans, dose 1.5 µM, individual replicates (Rep), read-out: Complex I activity, dose-response data",76.6%
same,activity at 3 µM,"[2]; C. elegans, dose 3 µM, Mean of replicates, read-out: Complex I activity, dose-response data",58.9%
same,"Complex I activity, dose-response data","[2]; C. elegans, dose 3 µM, individual replicates (Rep)",63.002 and 56.869 and 54.489
same,activity at 3 µM,"[2]; C. elegans, dose 3 µM, individual replicates (Rep), read-out: Complex I activity, dose-response data",61.4%
same,activity at 15 µM,"[2]; C. elegans, dose 15 µM, Mean of replicates, read-out: Complex I activity, dose-response data",13.5%
same,"Complex I activity, dose-response data","[2]; C. elegans, dose 15 µM, individual replicates (Rep)",13.403 and 18.209 and 10.130
same,activity at 15 µM,"[2]; C. elegans, dose 15 µM, individual replicates (Rep), read-out: Complex I activity, dose-response data",12.3%
same,activity at 37.5 µM,"[2]; C. elegans, dose 37.5 µM, Mean of replicates, read-out: Complex I activity, dose-response data",12.4%
same,"Complex I activity, dose-response data","[2]; C. elegans, dose 37.5 µM, individual replicates (Rep)",3.265 and 5.642 and 23.594 and 17.069
same,activity at 75 µM,"[2]; C. elegans, dose 75 µM, Mean of replicates, read-out: Complex I activity, dose-response data",12.3%
same,"Complex I activity, dose-response data","[2]; C. elegans, dose 75 µM, individual replicates (Rep)",2.370 and 3.939 and 26.690 and 16.321
same,IC50,[2]; [4],3.29 µM and 3.3 µM
